Reference: US8822500B2, “Tyrosine kinase inhibitors” (Chembridge Corporation, priority 2008, dated 2014)
Several values for one entry are separate records, joined by “and”; a condition that tells them apart may be missing. Equal entries are not always repeated. Where two headings read alike, the source gives them in different places.

Columns and labels:
U937 lymphoma cells = test: Cellular assay, 3 day cell viability (WST-1); type: cell-based; conditions: Homo sapiens, U-937, 72 h; 3 days, WST-1; read-out: GTx-U937 IC50
SUDHL-1 lymphoma cells = test: Cellular assay, 3 day cell viability (WST-1); type: cell-based; conditions: Homo sapiens, SU-DHL-1, 72 h; 3 days, WST-1; read-out: GTx-SUDHL-1 IC50
K299 lymphoma cells = test: Cellular assay, 3 day cell viability (WST-1); type: cell-based; conditions: 72 h, 3 days, read-out: GTx-K299 IC50
RET = RET (Homo sapiens (Human), UniProt P07949); test: In vitro kinase activity assay (LANCE TR-FRET); type: biochemical
TrkA = TrkA (Homo sapiens (Human), UniProt P04629); test: In vitro kinase activity assay (LANCE TR-FRET); type: biochemical;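 note: kinase reaction with poly-GT peptide substrate and ATP, phosphorylated product quantified by time-resolved FRET, eleven-point dose curves from 10^−11 to 10^−5 M in triplicate, DMSO as negative control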
ALK = ALK (Homo sapiens (Human), UniProt Q9UM73); test: In vitro kinase activity assay (LANCE TR-FRET); type: biochemical;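 note: kinase reactions with ATP and a poly-GT peptide substrate, phosphorylated product read by time-resolved FRET, 11-point curve from 10^−11 to 10^−5 M, DMSO as negative control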
ROS = ROS (Homo sapiens (Human), UniProt P08922); test: In vitro kinase activity assay (LANCE TR-FRET); type: biochemical
[1] = Rat pharmacokinetics / bioavailability; type: in vivo
[2] = Caco-2 cell permeation study; type: in vitro ADME; conditions: human; for Papp A→B at 2 h, 10 μM: Caco-2, pH 6.5, 10 μM, apical pH 6.5, 2 h; for Papp B→A at 2 h, 10 μM: Caco-2, pH 7.4, 10 μM, basolateral pH 7.4, 2 h;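 for all read-outs here: Caco-2 monolayers grown for 21–28 days with integrity confirmed by TEER, apical buffer HBSS with MES, basolateral buffer HBSS with HEPES, compound levels quantified by LC/MS/MS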
in vitro [3] = conditions: rat, microsomes
in vitro [4] = conditions: human, microsomes
Caco-2 cells = test: Caco-2 cell permeation study; type: in vitro ADME; conditions: 10 μM;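 note: Caco-2 monolayers grown for 21–28 days with integrity confirmed by TEER, apical buffer HBSS with MES, basolateral buffer HBSS with HEPES, compound levels quantified by LC/MS/MS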

Chain of ALK (Q9UM73 19-1620): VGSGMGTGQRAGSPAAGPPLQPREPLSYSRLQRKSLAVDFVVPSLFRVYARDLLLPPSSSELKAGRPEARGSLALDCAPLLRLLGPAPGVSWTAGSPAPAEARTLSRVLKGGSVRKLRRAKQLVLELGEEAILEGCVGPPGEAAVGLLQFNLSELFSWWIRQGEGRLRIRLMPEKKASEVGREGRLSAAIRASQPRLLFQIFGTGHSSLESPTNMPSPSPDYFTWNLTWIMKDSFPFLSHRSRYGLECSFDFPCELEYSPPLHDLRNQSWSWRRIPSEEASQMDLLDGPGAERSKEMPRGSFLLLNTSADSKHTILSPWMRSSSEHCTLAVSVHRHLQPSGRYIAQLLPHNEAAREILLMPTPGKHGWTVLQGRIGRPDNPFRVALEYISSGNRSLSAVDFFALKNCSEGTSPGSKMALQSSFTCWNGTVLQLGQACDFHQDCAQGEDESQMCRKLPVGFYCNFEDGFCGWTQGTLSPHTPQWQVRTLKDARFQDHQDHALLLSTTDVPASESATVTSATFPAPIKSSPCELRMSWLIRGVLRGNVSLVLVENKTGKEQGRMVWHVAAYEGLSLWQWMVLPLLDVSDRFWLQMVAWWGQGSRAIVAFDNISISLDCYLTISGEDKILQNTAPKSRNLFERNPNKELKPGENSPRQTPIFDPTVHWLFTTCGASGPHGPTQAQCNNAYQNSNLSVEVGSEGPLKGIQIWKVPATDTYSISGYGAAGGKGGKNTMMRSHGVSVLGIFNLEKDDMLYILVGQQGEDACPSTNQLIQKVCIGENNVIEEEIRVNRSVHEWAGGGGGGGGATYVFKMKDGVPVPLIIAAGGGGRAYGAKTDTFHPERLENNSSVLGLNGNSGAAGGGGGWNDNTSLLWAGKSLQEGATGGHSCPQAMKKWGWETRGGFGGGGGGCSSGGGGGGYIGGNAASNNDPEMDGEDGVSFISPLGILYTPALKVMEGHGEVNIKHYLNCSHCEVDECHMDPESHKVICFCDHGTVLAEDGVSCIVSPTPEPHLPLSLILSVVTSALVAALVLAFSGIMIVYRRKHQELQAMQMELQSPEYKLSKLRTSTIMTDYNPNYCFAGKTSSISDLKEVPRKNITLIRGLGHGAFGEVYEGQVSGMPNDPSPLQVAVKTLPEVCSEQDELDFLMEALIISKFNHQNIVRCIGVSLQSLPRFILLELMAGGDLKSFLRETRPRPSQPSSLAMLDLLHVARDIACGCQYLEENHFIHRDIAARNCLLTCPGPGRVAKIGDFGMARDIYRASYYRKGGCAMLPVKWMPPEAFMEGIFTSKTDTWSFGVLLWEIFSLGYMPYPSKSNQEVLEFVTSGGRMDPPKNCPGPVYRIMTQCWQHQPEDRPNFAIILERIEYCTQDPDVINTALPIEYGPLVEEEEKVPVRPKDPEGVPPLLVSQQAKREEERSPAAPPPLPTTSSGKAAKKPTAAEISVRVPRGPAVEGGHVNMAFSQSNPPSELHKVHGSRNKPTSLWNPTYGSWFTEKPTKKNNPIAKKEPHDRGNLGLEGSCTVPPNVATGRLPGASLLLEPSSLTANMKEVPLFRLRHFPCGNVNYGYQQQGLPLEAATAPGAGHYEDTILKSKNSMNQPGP
Chain of TrkA (P04629 33-796): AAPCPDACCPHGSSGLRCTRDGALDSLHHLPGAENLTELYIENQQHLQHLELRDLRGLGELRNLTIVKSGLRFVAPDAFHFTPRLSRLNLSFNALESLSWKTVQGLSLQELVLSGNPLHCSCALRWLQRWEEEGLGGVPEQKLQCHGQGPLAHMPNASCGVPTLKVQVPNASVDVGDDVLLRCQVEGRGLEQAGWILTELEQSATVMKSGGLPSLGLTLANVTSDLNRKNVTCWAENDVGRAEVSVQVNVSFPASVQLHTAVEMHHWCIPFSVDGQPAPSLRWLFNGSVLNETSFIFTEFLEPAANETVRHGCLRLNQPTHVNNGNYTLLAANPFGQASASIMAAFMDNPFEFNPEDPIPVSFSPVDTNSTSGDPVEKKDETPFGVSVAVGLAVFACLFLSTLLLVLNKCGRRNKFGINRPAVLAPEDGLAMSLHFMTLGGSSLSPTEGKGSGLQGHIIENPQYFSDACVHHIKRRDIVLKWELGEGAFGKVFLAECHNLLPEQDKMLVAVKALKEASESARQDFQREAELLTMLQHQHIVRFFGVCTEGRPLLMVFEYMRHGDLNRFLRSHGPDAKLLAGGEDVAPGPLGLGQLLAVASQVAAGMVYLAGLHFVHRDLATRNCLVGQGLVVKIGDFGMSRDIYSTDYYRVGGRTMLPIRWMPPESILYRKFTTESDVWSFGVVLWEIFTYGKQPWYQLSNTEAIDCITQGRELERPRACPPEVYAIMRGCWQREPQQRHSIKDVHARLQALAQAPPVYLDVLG
Chain of RET (P07949 29-1114): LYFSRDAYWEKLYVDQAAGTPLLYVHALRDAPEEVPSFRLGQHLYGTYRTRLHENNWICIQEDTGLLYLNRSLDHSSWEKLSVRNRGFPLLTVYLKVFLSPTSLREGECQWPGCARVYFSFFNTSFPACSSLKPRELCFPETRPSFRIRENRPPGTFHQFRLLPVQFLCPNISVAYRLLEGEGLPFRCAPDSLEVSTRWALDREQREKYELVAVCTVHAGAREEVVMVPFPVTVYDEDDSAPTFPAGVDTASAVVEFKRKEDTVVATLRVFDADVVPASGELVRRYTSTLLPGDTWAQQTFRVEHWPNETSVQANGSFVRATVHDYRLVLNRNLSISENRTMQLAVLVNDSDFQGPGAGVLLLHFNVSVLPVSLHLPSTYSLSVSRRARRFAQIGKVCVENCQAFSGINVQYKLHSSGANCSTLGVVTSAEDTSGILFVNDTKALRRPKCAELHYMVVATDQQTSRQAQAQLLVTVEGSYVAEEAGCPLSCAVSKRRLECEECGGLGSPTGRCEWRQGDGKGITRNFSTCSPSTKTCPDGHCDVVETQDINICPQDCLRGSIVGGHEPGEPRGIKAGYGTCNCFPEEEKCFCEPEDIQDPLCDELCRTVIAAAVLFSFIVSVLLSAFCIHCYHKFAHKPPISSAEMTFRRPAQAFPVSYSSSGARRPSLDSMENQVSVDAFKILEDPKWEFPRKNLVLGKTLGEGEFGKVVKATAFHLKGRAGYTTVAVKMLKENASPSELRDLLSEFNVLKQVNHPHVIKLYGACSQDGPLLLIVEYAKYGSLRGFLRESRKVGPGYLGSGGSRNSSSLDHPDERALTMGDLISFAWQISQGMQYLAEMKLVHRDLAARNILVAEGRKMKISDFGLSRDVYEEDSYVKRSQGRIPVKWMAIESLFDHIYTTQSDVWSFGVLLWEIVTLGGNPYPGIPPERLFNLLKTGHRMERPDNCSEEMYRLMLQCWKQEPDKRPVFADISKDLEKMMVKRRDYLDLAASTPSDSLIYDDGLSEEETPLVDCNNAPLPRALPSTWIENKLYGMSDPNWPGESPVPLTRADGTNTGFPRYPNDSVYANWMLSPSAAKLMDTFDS

SMILES | IC50 (U937 lymphoma cells) | IC50 (SUDHL-1 lymphoma cells) | IC50 (K299 lymphoma cells) | IC50 (TrkA; read-out: GTx-TrKA IC50) | IC50 (TrkA; read-out: TrkA (nM) IC50) | IC50 (ALK; read-out: ALK (nM) IC50) | IC50 (ALK; read-out: GTx-ALK IC50) | also measured
CC(Cc1cc(F)ccc1F)Nc1cc[nH]c(=O)c1-c1nc2cc3c(cc2[nH]1)CN(C(C)C)C3=O (stereo not shown) [Compound 37, 2-(4-((1-(2,5-Difluorophenyl)propan-2-yl)amino)-2-oxo-1,2-dihydropyridin-3-yl)-6-isopropyl-6,7-dihydroimidazo[4,5-f]isoindol-5(1H)-one] | > 3000 nM | 2770 nM | 1830 nM |  |  |  |  | 
Cc1ccc(F)cc1CC(C)Nc1cc[nH]c(=O)c1-c1nc2cc3c(cc2[nH]1)C(=O)N(C(C)C)C3=O (stereo not shown) [Compound 38, 2-(4-((1-(5-Fluoro-2-methylphenyl)propan-2-yl)amino)-2-oxo-1,2-dihydropyridin-3-yl)-6-isopropylimidazo[4,5-f]isoindole-5,7(1H,6H)-dione] | > 3000 nM | 2800 nM | > 3000 nM |  |  |  |  | 
Cc1ccc(F)cc1CC(C)Nc1cc[nH]c(=O)c1-c1nc2cc3c(cc2[nH]1)CN(C(C)C)C3=O (stereo not shown) [Compound 39, 2-(4-((1-(5-Fluoro-2-methylphenyl)propan-2-yl)amino)-2-oxo-1,2-dihydropyridin-3-yl)-6-isopropyl-6,7-dihydroimidazo[4,5-f]isoindol-5(1H)-one] | > 3000 nM | 2800 nM | > 3000 nM |  |  |  |  | 
CC(Cc1c(F)c(F)cc(F)c1F)Nc1cc[nH]c(=O)c1-c1nc2cc3c(cc2[nH]1)C(=O)N(C)C3=O (stereo not shown) [Compound 41, 2-(4-(1-(2,3,5,6-Tetrafluorophenyl)propan-2-ylamino)-2-oxo-1,2-dihydropyridin-3-yl)-6-methylimidazo[4,5-f]isoindole-5,7(1H,6H)-dione] |  |  |  | > 10000 nM | > 10000 nM | > 10000 nM | > 10000 nM | IC50 (RET; read-out: GTx-RET IC50): > 10000 nM; IC50 (RET; read-out: RET (nM) IC50): > 10000 nM; IC50 (ROS; read-out: GTx-ROS IC50): 5 nM; IC50 (ROS; read-out: ROS (nM) IC50): 4.53 nM
CC(Cc1c(F)c(F)cc(F)c1F)Nc1cc[nH]c(=O)c1-c1nc2cc3c(cc2[nH]1)C(=O)N(C)C3 (stereo not shown) [Compound 42, 6-Methyl-2-(2-oxo-4-(1-(2,3,5,6-tetrafluorophenyl)propan-2-ylamino)-1,2-dihydropyridin-3-yl)-6,7-dihydroimidazo[4,5-f]isoindole-5(1H)-one] | > 10000 nM | > 10000 nM | > 10000 nM | 7 nM | 7.27 nM | 17.5 nM | 18 nM | IV_AUC0-1440 Rat 10 mpk ([1]; 10 mg/kg I.V.): 232 µg·min/mL; PO_AUC0-1440 Rat 10 mpk ([1]; 10 mg/kg P.O.): 5.48 µg·min/mL; bioavailability ([1]; male, Sprague-Dawley, plasma, po, 10 mg/kg P.O., read-out: Rat F %): 2.36%; efflux ratio at 2 h, 10 μM ([2]; Caco-2, Caco-2): 1; Papp A→B at 2 h, 10 μM [2]: 0.24 ×10⁻⁶ cm/s; Papp B→A at 2 h, 10 μM [2]: 0.24 ×10⁻⁶ cm/s
CC(Cc1c(F)c(F)cc(F)c1F)Nc1cc[nH]c(=O)c1-c1nc2cc3c(cc2n1C)CN(C)C3=O (stereo not drawn) [Compound 43, Trans-1,6-Dimethyl-2(2-oxo-4-(1-(2,3,5,6-tetrafluorophenyl)propan-2-ylamino)-1,2-dihydropyridin-3-yl)-6,7-dihydroimidazo[4,5-f]isoindol-5(1H)-one] | > 10000 nM | > 10000 nM | > 10000 nM | 9500 nM | 9490 nM | > 10000 nM | > 10000 nM | 
Cc1ccc(F)cc1CC(C)Nc1cc[nH]c(=O)c1-c1nc2cc3c(cc2[nH]1)CNC3=O (stereo not shown) [Compound 52] |  |  |  |  |  |  |  | half-life at 0.5 μM (in vitro [3]; pH 7.4): 2.51 min; microsomal CLint at 0.5 μM (in vitro [3]; pH 7.4, Rat LM-P1 CL (ul/min/mg)): 276 µL/min/mg; microsomal CLint at 0.5 μM (in vitro [4]; pH 7.4, Human LM-P1 CL (ul/min/mg)): 134 µL/min/mg; half-life at 0.5 μM (in vitro [4]; pH 7.4, Human LM-P1 Half-life (min)): 5.17 min; Papp (10−6 cm/sec) A to B (Caco-2 cells; apical pH 6.5, 2 h): 5.0 10−6 cm/sec and 8.9 10−6 cm/sec; Papp (10−6 cm/sec) B to A (Caco-2 cells; basolateral pH 7.4, 2 h): 10.2 10−6 cm/sec and 5.2 10−6 cm/sec; Papp A→B at 2 h, 10 μM [2]: 9.3 ×10⁻⁶ cm/s; Papp B→A at 2 h, 10 μM [2]: 7.4 ×10⁻⁶ cm/s
CC(C)NCC(O)COc1cccc2ccccc12 (stereo not shown) [Propranolol, reference compound] |  |  |  |  |  |  |  | Pos Ctrl Recovery (Caco-2 cells; positive control): 63% and 58% and 26%
